This passage reports IC50 results from patent US10287301B2 (Achillion Pharmaceuticals, Inc., priority 2015, dated 2019).

The target of one experiment is Human Factor D (Homo sapiens (Human), UniProt P00746). Kind of experiment: Human Factor D Assay. Type of experiment: biochemical.
Human Factor D, sequence (P00746 26-253): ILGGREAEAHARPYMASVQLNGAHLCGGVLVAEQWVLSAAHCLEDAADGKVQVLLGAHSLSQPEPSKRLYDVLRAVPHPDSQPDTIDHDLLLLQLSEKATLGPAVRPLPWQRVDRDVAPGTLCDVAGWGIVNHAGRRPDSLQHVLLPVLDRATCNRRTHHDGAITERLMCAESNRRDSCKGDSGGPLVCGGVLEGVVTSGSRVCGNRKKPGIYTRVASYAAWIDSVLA
Conditions: not given
As to the method: Human Factor D (purified from human serum, Complement Technology, Inc.) at 80 nM final concentration was incubated with test compound at various concentrations for 5 minutes at room temperature in 50 mM Tris, 1M NaCl, pH 7.5. A synthetic substrate Z-L-Lys-SBzl and DTNB (Ellman's reagent) are added to final concentrations of 100 μM each. […] IC50 values are calculated by nonlinear regression of complement Factor D reaction rates as a function of test compound concentration.
Take `CC(=O)c1cn(CC(=O)N2C[C@H](F)C[C@H]2C(=O)Nc2ccccc2-c2nc3ccccc3s2)c2ccc(-c3ccnnc3)cc12` [Compound 34, (2S,4R)-1-(2-(3-acetyl-5-(pyridazin-4-yl)-1H-indol-1-yl)acetyl)-N-(2-(benzo[d]thiazol-2-yl)phenyl)-4-fluoropyrrolidine-2-carboxamide]: the IC50 was greater than 10000 nM.
On to `NC(=O)c1nn(CC(=O)N2C[C@H](F)C[C@H]2C(=O)NCc2cccnc2)c2ccc(-c3ccnnc3)cc12` [Compound 39, 1-(2-((2S,4R)-4-fluoro-2-(pyridin-3-ylmethylcarbamoyl)pyrrolidin-1-yl)-2-oxoethyl)-5-(pyridazin-4-yl)-1H-indazole-3-carboxamide], for which the half-inhibitory concentration (IC50) is 1000 to 10000 nM.
Same read-out and setting: for `NC(=O)c1nn(CC(=O)N2C[C@H](F)C[C@H]2C(=O)Nc2cccnc2)c2ccc(-c3ccnnc3)cc12` [Compound 47, 1-(2-((2S,4R)-4-fluoro-2-(pyridin-3-ylcarbamoyl)pyrrolidin-1-yl)-2-oxoethyl)-5-(pyridazin-4-yl)-1H-indazole-3-carboxamide] the value was greater than 10000 nM; for `CCN1Cc2ccc(NC(=O)[C@@H]3C[C@@H](F)CN3C(=O)Cn3cc(C(C)=O)c4cc(-c5ccnnc5)ccc43)cc2C1=O` [Compound 49, (2S,4R)-1-(2-(3-acetyl-5-(pyridazin-4-yl)-1H-indol-1-yl)acetyl)-N-(2-ethyl-3-oxoisoindolin-5-yl)-4-fluoropyrrolidine-2-carboxamide], 1000 to 10000 nM.

Still in this experiment, the particulars now being: Human Factor D 80 nM, substrate Z-L-Lys-SBzl; read-out: IC50.
As to `CC(=O)c1cn(CC(=O)N2C[C@H](F)C[C@H]2C(=O)Nc2cccc(-c3ccccc3Cl)c2F)c2ccc(-c3cnc(N4CCCC4)nc3)cc12` [Compound 26, (2S,4R)-1-(2-(3-acetyl-5-(2-(pyrrolidin-1-yl)pyrimidin-5-yl)-1H-indol-1-yl)acetyl)-N-(2′-chloro-2-fluorobiphenyl-3-yl)-4-fluoropyrrolidine-2-carboxamide], the IC50 is less than 1000 nM.
On the same count and under the same terms, with `COc1ncc(-c2ccc3c(c2)c(C(C)=O)cn3CC(=O)N2C[C@H](F)C[C@H]2C(=O)Nc2cccc(-c3ccccc3Cl)c2F)cn1` [Compound 27, (2S,4R)-1-(2-(3-acetyl-5-(2-methoxypyrimidin-5-yl)-1H-indol-1-yl)acetyl)-N-(2′-chloro-2-fluorobiphenyl-3-yl)-4-fluoropyrrolidine-2-carboxamide] the figure was less than 1000 nM; with `CC(=O)c1cn(CC(=O)N2C[C@H](F)C[C@H]2C(=O)Nc2cccc(-c3ccccc3Cl)c2F)c2ccc(C3=CCN(C(C)=O)CC3)cc12` [Compound 28, (2S,4R)-1-(2-(3-Acetyl-5-(1-acetyl-1,2,3,6-tetrahydropyridin-4-yl)-1H-indol-1-yl)acetyl)-N-(2′-chloro-2-fluoro-[1,1′-biphenyl]-3-yl)-4-fluoropyrrolidine-2-carboxamide], less than 1000 nM; with `COc1ncc(-c2ccc3c(c2)c(C(N)=O)nn3CC(=O)N2C[C@H](F)C[C@H]2C(=O)Nc2cccc(-c3ccccc3Cl)c2F)cn1` [Compound 29, 1-(2-((2S,4R)-2-(2′-chloro-2-fluorobiphenyl-3-ylcarbamoyl)-4-fluoropyrrolidin-1-yl)-2-oxoethyl)-5-(2-methoxypyrimidin-5-yl)-1H-indazole-3-carboxamide], less than 1000 nM.
As to `COc1ncc(-c2ccc3c(c2)c(C(N)=O)nn3CC(=O)N2C[C@H](F)C[C@H]2C(=O)Nc2cccc(Cl)n2)cn1` [Compound 30, 1-(2-((2S,4R)-2-(6-chloropyridin-2-ylcarbamoyl)-4-fluoropyrrolidin-1-yl)-2-oxoethyl)-5-(2-methoxypyrimidin-5-yl)-1H-indazole-3-carboxamide], the half-inhibitory concentration (IC50) was less than 1000 nM.
For the compound `CC(=O)c1cn(CC(=O)N2C[C@H](F)C[C@H]2C(=O)Nc2cccc(-c3ccccc3Cl)c2F)c2ccc(N3CCN(c4ncccn4)CC3)cc12` [Compound 31, (2S,4R)-1-(2-(3-acetyl-5-(4-(pyrimidin-2-yl)piperazin-1-yl)-1H-indol-1-yl)acetyl)-N-(2′-chloro-2-fluorobiphenyl-3-yl)-4-fluoropyrrolidine-2-carboxamide], the IC50 was less than 1000 nM.
In the case of `CC(=O)c1cn(CC(=O)N2C[C@H](F)C[C@H]2C(=O)Nc2cccc(-c3ccccc3Cl)c2F)c2ccc(N3CCN(c4ncc(F)cn4)CC3)cc12` [Compound 32, (2S,4R)-1-(2-(3-acetyl-5-(4-(5-fluoropyrimidin-2-yl)piperazin-1-yl)-1H-indol-1-yl)acetyl)-N-(2′-chloro-2-fluorobiphenyl-3-yl)-4-fluoropyrrolidine-2-carboxamide], the IC50 was less than 1000 nM.
For the compound `CC(=O)c1cn(CC(=O)N2C[C@H](F)C[C@H]2C(=O)Nc2cccc(-c3ccccc3Cl)c2F)c2ccc(N3CCN(S(C)(=O)=O)CC3)cc12` [Compound 33, (2S,4R)-1-(2-(3-Acetyl-5-(4-(methylsulfonyl)piperazin-1-yl)-1H-indol-1-yl)acetyl)-N-(2′-chloro-2-fluoro-[1,1′-biphenyl]-3-yl)-4-fluoropyrrolidine-2-carboxamide], the IC50 was less than 1000 nM.
Same read-out and setting: for `CC(=O)c1cn(CC(=O)N2C[C@H](F)C[C@H]2C(=O)NCc2ccccn2)c2ccc(-c3ccnnc3)cc12` [Compound 38, (2S,4R)-1-(2-(3-acetyl-5-(pyridazin-4-yl)-1H-indol-1-yl)acetyl)-4-fluoro-N-(pyridin-2-ylmethyl) pyrrolidine-2-carboxamide] the value was less than 1000 nM; for `NC(=O)c1nn(CC(=O)N2C[C@H](F)C[C@H]2C(=O)Nc2ccccc2-c2nc3ccccc3s2)c2ccc(-c3ccnnc3)cc12` [Compound 41, 1-(2-((2S,4R)-2-(2-(benzo[d]thiazol-2-yl)phenylcarbamoyl)-4-fluoropyrrolidin-1-yl)-2-oxoethyl)-5-(pyridazin-4-yl)-1H-indazole-3-carboxamide], greater than 10000 nM.
Same read-out and setting: for `CC(=O)c1cn(CC(=O)N2C[C@H](F)C[C@H]2C(=O)Nc2noc3cc(C(F)(F)F)ccc23)c2ccc(-c3ccnnc3)cc12` [Compound 42, (2S,4R)-1-(2-(3-acetyl-5-(pyridazin-4-yl)-1H-indol-1-yl)acetyl)-4-fluoro-N-(6-(trifluoromethyl)benzo[d]isoxazol-3-yl)pyrrolidine-2-carboxamide] the value was greater than 10000 nM; for `CC(=O)c1cn(CC(=O)N2C[C@H](F)C[C@H]2C(=O)NCc2cccc(Cl)c2)c2ccc(-c3ccnnc3)cc12` [Compound 44, (2S,4R)-1-(2-(3-acetyl-5-(pyridazin-4-yl)-1H-indol-1-yl)acetyl)-N-(3-chlorobenzyl)-4-fluoropyrrolidine-2-carboxamide], less than 1000 nM; for `NC(=O)c1nn(CC(=O)N2C[C@H](F)C[C@H]2C(=O)NCc2cccc(Cl)c2)c2ccc(-c3ccnnc3)cc12` [Compound 45, 1-(2-((2S,4R)-2-(3-chlorobenzylcarbamoyl)-4-fluoropyrrolidin-1-yl)-2-oxoethyl)-5-(pyridazin-4-yl)-1H-indazole-3-carboxamide], less than 1000 nM.
Regarding `CC(=O)c1cn(CC(=O)N2C[C@H](F)C[C@H]2C(=O)NCc2cc(F)cc(Cl)c2)c2ccc(-c3ccnnc3)cc12` [Compound 46, (2S,4R)-1-(2-(3-acetyl-5-(pyridazin-4-yl)-1H-indol-1-yl)acetyl)-N-(3-chloro-5-fluorobenzyl)-4-fluoropyrrolidine-2-carboxamide], the IC50 is less than 1000 nM.
For `CCN1Cc2ccc(NC(=O)[C@@H]3C[C@@H](F)CN3C(=O)Cn3nc(C(N)=O)c4cc(-c5ccnnc5)ccc43)cc2C1=O` [Compound 48, 1-(2-((2S,4R)-2-(2-ethyl-3-oxoisoindolin-5-ylcarbamoyl)-4-fluoropyrrolidin-1-yl)-2-oxoethyl)-5-(pyridazin-4-yl)-1H-indazole-3-carboxamide], the 50% inhibitory concentration (IC50) was greater than 10000 nM.
In the case of `NC(=O)c1nn(CC(=O)N2C[C@H](F)C[C@H]2C(=O)Nc2ccc3ncsc3c2)c2ccc(-c3ccnnc3)cc12` [Compound 50, 1-(2-((2S,4R)-2-(benzo[d]thiazol-6-ylcarbamoyl)-4-fluoropyrrolidin-1-yl)-2-oxoethyl)-5-(pyridazin-4-yl)-1H-indazole-3-carboxamide], the IC50 was greater than 10000 nM.
Turning to `NC(=O)c1nn(CC(=O)N2C[C@H](F)C[C@H]2C(=O)N[C@@H]2CCC[C@@H]2OCc2ccccc2)c2ccc(-c3ccnnc3)cc12` [Compound 51, 1-(2-((2S,4R)-2-((1R,2S)-2-(benzyloxy)cyclopentyl-carbamoyl)-4-fluoropyrrolidin-1-yl)-2-oxoethyl)-5-(pyridazin-4-yl)-1H-indazole-3-carboxamide], the half-maximal inhibitory concentration (IC50) was greater than 10000 nM.
With `NC(=O)c1nn(CC(=O)N2C[C@H](F)C[C@H]2C(=O)NCc2nc3ccccc3s2)c2ccc(-c3ccnnc3)cc12` [Compound 52, 1-(2-((2S,4R)-2-(benzo[d]thiazol-2-ylmethylcarbamoyl)-4-fluoropyrrolidin-1-yl)-2-oxoethyl)-5-(pyridazin-4-yl)-1H-indazole-3-carboxamide], the IC50 is greater than 10000 nM.
Still for that read-out and setting: with `CC(=O)c1cn(CC(=O)N2C[C@H](F)C[C@H]2C(=O)Nc2nc(-c3ccc4c(c3)CCCC4)cs2)c2ccc(-c3ccnnc3)cc12` [Compound 54, (2S,4R)-1-(2-(3-acetyl-5-(pyridazin-4-yl)-1H-indol-1-yl)acetyl)-4-fluoro-N-(4-(5,6,7,8-tetrahydro-naphthalen-2-yl)thiazol-2-yl)pyrrolidine-2-carboxamide] the figure was greater than 10000 nM.
As to `NC(=O)c1nn(CC(=O)N2C[C@H](F)C[C@H]2C(=O)Nc2nc(-c3ccc4c(c3)CCCC4)cs2)c2ccc(-c3ccnnc3)cc12` [Compound 55, 1-(2-((2S,4R)-4-fluoro-2-(4-(5,6,7,8-tetrahydro-naphthalen-2-yl)thiazol-2-ylcarbamoyl)pyrrolidin-1-yl)-2-oxoethyl)-5-(pyridazin-4-yl)-1H-indazole-3-carboxamide], the half-maximal inhibitory concentration (IC50) was greater than 10000 nM.
Regarding `CC(=O)c1cn(CC(=O)N2C[C@H](F)C[C@H]2C(=O)Nc2nc(-c3c(C)nc4sccn34)cs2)c2ccc(-c3ccnnc3)cc12` [Compound 57], the IC50 is greater than 10000 nM.

In general, IC50 refers to the concentration that gives 50% inhibition.
